Data set [1] in a line: Human study of 2 hydroxy estrone eicosenoate (Example 8). In kind it is in vivo. To be noted: humans, oral capsule, 0.75 or 0.375 micromoles/kg. Here is the method: In this random, double-blind, placebo controlled study, subjects are selected to one of three groups and take a capsule orally every morning containing one of the following: a) sunflower oil (placebo), b) 2 hydroxy estrone eicosenoate dissolved in sunflower oil at a dose of 0.75 micromoles/kg, or c) 2 hydroxy estrone eicosenoate dissolved in sunflower oil at a dose of 0.375 micromoles/kg. […]
Different tests are performed at least five different times during each study, namely at the screening of potential participants, at the beginning of the study, weekly during the trials, at the end of the first 4 week period and at the end of the second 4 week treatment period. • 1) SCREENING: Subjects are screened to exclude hypothyroidism, pregnancy, and heart disease. […] Subjects selected to participate in the studies have the following initial measurements: WEIGHT, WAIST to HIP RATIO, HEIGHT, BMI (calculated), BODY FAT % & TOTAL BODY FAT (via bioelectrical impedance method). […]
Ad libitum diets are followed, and food intake and appetite are assessed daily by the patient with an appropriate questionnaire and booklet. […]

The nature of data set [2]: Rat study of 2 hydroxyestrone eicosenoate (Example 9). In kind it is in vivo, Osborne Mendle rats. To be noted: rats, oral gavage 21 days, 10, 5, 3.33 or 2.5 micromoles/kg. The protocol: Osborne Mendle rats are selected as the study subjects due to their propensity to gain fat to when fed a high fat diet. An initial measurement of body weight is performed on each rat.
The rats are placed individually in appropriate cages and allowed an ad libitum diet of standard rat chow and water for a 10-day period. During this 10-day period the rats are gavaged daily with 0.1 cc volume of sunflower oil to allow them to become comfortable with being handled and receiving the gavage tube (it takes about 10 days for this acclimation to occur, and is important so that the animals are not stressed by the gavage).
Daily measurements include the following: • 1. Weight • 2. Weight of food consumed • 3. Spillage • 4. Water consumed, both volume and weight
The rats remain confined and are denied out-of-cage activity or exercise for the duration of the experiment other than normal daily activity confined to the cage. This initial 10 day period establishes a pattern and average of weight gain, to acclimate the animals to the gavage procedure, and determine the average food and water consumption for each rat. […]
At the end of the study, rats are anesthetized then sacrificed via guillotine. […] Weight of the uterus is determined. […]

For data set [3] the following is noted: cited from earlier work.
The test system of data set [4] is MCF-7 human breast cancer cell line. The data set is described as follows: MCF-7 human breast cancer cell line test. Format: cell-based. An excerpt: The practical use of any compound given to humans for the treatment of obesity require, of course, that the compound not only be effective, but able to pass the FDA requirements and be approved as a drug suitable for humans. […] One test used to determine reactivity with human breast cancer cells is the “MCF-7 human breast cancer cell line test”. The lower the concentration of drug required to produce agonist activity, the more potential there is for problems with cancer causing &/or promotion in humans A comfortable level in the pharmaceutical industry would be a reactivity in the micromolar range. In the case of oleyl estrone, agonist activity begins at […]; with estrone eicosenoate, agonist activity begins at a ten times greater concentration of 1.0 nanomolar. This low concentration of agonist activity mitigates the possibility that these compounds would gain FDA approval for either drug.

Data set [5] in a line: Stability of the compound.
Data set [6] in a line: Rabbit 10-day oral study: body weight and food consumed (Example 1).
Procedure: During the first 3 weeks, rabbits were only weighed and allowed to eat. On the fourth week, all rabbits were given 0.05 cc dose of peanut oil.
Five New Zealand white rabbits were obtained and caged in their natural environment (outside) and fed a cafeteria, ad libitum diet of rabbit chow. […] The appropriate weights of OE or EE were diluted in peanut oil to provide concentrations as follows: 1) OE, 2 mg/0.05 cc; 2) EE, 1 mg/0.05 cc; 3) 0.33 mg/0.05 cc; 4) EE, 0.1mg/0.05 cc, 5) EE, 0.03 mg/0.05 cc
For the initial three weeks, the rabbits were given no medicine or oil. Body weight and food consumed were measured daily; establishing a daily average for food consumed and weight change.
Rabbits received the assigned dose for 10 consecutive days. Rabbit weight (kg) and food eaten (grams) were determined daily.
Another data set deals with human T47D breast cells. As to conditions: ER-CALUX; cited from earlier work.

Entries after “also recorded” stand apart in the source; their conditions may differ.

`CCCCCCCC/C=C\CCCCCCCCCC(=O)Oc1cc2c(cc1O)[C@H]1CC[C@]3(C)C(=O)CC[C@H]3[C@@H]1CC2` [2-hydroxy estrone eicosenoate]: in data set [1], the appetite entry is “reduces appetite” and the “weight loss, loss of body fat, and/or decrease of body fat%” value is “produces weight loss”. Also, in data set [2], the “body weight &/or body fat” value is given as “reduction of body weight &/or body fat” and the food consumption entry is on record as “reduction in food consumption”.

`CCCCCCCCCCCCCCCCCC(=O)Oc1ccc2c(c1)CCC1C2CCC2(C)C(=O)CCC12` (stereo not drawn) [stearoyl estrone]: the “efficacy compared with oleoyl estrone” value in data set [3] (Life Sci, 1998: 62 (15): 1349-59) is “less effective”.

Regarding `CCCCCCCC/C=C\CCCCCCCCCC(=O)Oc1cc2c(cc1Br)[C@H]1CC[C@]3(C)C(=O)CC[C@H]3[C@@H]1CC2` (relative stereo) [bromo compound, 2-bromoestrone ester of cis-11-eicosenoic acid], in data set [4] (compared with oleoyl estrone), the “reactivity in MCF-7 test” value is reported as “only as reactive as oleoyl estrone”. Besides, the stability entry in data set [5] is recorded as “stable”.

`CCCCCCCC/C=C\CCCCCCCC(=O)Oc1ccc2c(c1)CC[C@@H]1[C@@H]2CC[C@]2(C)C(=O)CC[C@@H]12` [OE, Oleoyl-estrone, reference compound]: in data set [4] (MCF-7 human breast cancer cells), the “concentration at which agonist activity begins” value came to 0.9 nM. For the same compound, the lipid reserves entry in data set [3] (Zucker lean rats, one study) is on record as “lost virtually all their lipid reserves”. Also, the weight loss result in data set [3] (variety of rats, i.v. or oral, published articles) is “rapid and sustained weight loss”. The “FINAL WT.” value in data set [6] (OE 2 mg/d oral in peanut oil, 10 days, one rabbit, initial wt 3.70 kg) worked out at 3.60 kg. In addition, the “WT. Δ w/ Rx 10 days” value in data set [6] (OE 2 mg/d oral, 10 days, pre-Rx 10 day avg. +0.121, control +0.14) was −0.10 kg. For the same compound, the “FOOD/DAY AVG. w/ Rx” value in data set [6] (OE 2 mg/d oral, 10 days, pre-Rx avg 160.55) is reported as 93.8 grams. Further, the “side effect, behaviour” value in data set [6] (OE 2 mg/d oral, after one week of therapy, rabbit) is “very agitated, mean and aggressive; also recorded: irritability and aggressive behavior”.

For the compound `C[C@]12CC[C@@H]3c4cc(O)c(O)cc4CC[C@H]3[C@@H]1CCC2=O` [2 hydroxy estrone], in the data set on human T47D breast cells, the “times less active than estrone” value is reported as 10,000 times.
